Earlier results as cited in patent EP3251687A1, “BIOACTIVE PEPTIDES FOR BLOOD GLUCOSE CONTROL” (Centrum Innowacji Edoradca Sp. z o.o. Spolka Komandytowa, priority 2016, dated 2017).

System: carboxypeptidases A, B

## enterostatin
  resistance to digestion by carboxypeptidases A, B: resistant to digestion by carboxypeptidases A, B
